Patent US20230241150A1, “Compositions and Uses Thereof” (Natur-Tech Pharmacal Co., Ltd, priority 2020, published 2023)
Marks after values point to notes of the source that are not given here.

How the values were obtained:
[1] = test system: PTZ-induced epileptic mice; assay: PTZ-induced epilepsy in mice: seizure stage (Racine scale), convulsions, mortality; assay type: in vivo, ICR mice; settings: carbamazepine 80 mg/kg intragastric daily 7 days; PTZ 80 mg/kg i.p.; n=12
Description: As known to those skilled in the art, pentylenetetrazole (PTZ) is a powerful seizure-inducing agent, and its epileptic model is considered to be one of the ideal models for systemic tonic seizures. PTZ itself has no special neurotoxicity, so it is widely used in the study of epilepsy pathogenesis and the screening of anti-epileptic drugs. When PTZ induces epilepsy in mice, its seizures are characterized by clonic seizures in the initial stage, followed by systemic tonic seizures soon afterwards. PTZ is a central nervous system stimulant that acts on GABA-GABAA receptor system. It promotes the enhancement of the excitatory synaptic facilitation and reduces the release of GABA. This in turn reduces the inhibitory ability, increases the sensitivity to convulsions, and increases the excitability of the central nervous system, thereby inducing EP. According to its seizure characteristics, in this experiment, these two seizure forms were used as indicators and combined with the current Racine scale to analyze their epileptic behavior.
(§1) The mice in each group were given intragastric administration daily, for 7 consecutive days. 30 minutes after the last administration, except for the blank control group, the mice in the other groups were injected intraperitoneally with 80 mg/kg of PTZ to induce convulsions in the mice. Each mouse was placed in a separate cage for observation for 30 minutes, and behavioral changes such as stages of seizure, duration, latent period and mortality rate of the mice were recorded.
The Racine scale (see: https://en.wikipedia.org/wiki/Racine_stages) was used to determine the level of epilepsy in mice: • Stage 0: No response; • Stage I: Wet dog shakes, facial twitches, clonus, tremors (such as eye blinking, moustache movements, rhythmic chewing, etc.); • Stage II: Stage I plus rhythmic nodding; • Stage III: Stage II plus forelimb clonus, but no rearing; • Stage IV: Rearing and oblique bilateral falling, or rearing with forelimb clonus; and • Stage V: Imbalance, tipping, twitching of limbs, generalized clonus, generalized tonic seizures, falling, rolling, and loss of postural control.

brain of convulsive mice = assay type: in vivo, ICR mice; settings: carbamazepine 80 mg/kg intragastric daily 7 days; PTZ 80 mg/kg i.p.; n=12
Experimental: as §1
After completing the behavioral observation determined by the above relevant indicators, experiments were conducted to study the effect of the composition on the contents of NO, Na-K-ATP, Asp, and 5-HT in the brain of convulsive mice. After the behavioral observation was over, the mice were immediately executed, and the brain tissues and the required organs were quickly taken out, weighed, and then the brain tissues were placed in liquid nitrogen and stored in a refrigerator at -80° C. Blood stains on the surface were washed off with pre-cooled saline before measurement. The tissues were then weighed and PBS was added in a volume ratio of 1:9 to fully homogenize the brain tissues. The homogenate was centrifuged at 3000 r/min for 20 minutes. The supernatant was collected as samples for subsequent ELISA test to detect the content of GABA, Glu, NO, Na^+-K^+-ATP, Asp, 5-HT, etc.

With NC(=O)N1c2ccccc2C=Cc2ccccc21 [Carbamazepine] the Duration of convulsions [1] was 165.3 ± 32.5 s, the “Latent period of convulsions” value [1] was 365.2 ± 25.6 s and the Morality rates [1] was 16.7%. The Number of convulsions [1] was 8, the “number of seizures, Stage I” value [1] was 0.9±0.4 and the “number of seizures, Stage II” value [1] was 1.4±0.8. The “number of seizures, Stage III” value [1] was 1.5±0.8, the “number of seizures, Stage IV” value [1] was 2.1±1.8 and the “number of seizures, Stage V” value [1] was 6.3±2.1. The “seizure behavior: number of mice at Stage 0” value [1] was 1, the “seizure behavior: number of mice at Stage I” value [1] was 3 and the “seizure behavior: number of mice at Stage II” value [1] was 3. For the same compound, the “seizure behavior: number of mice at Stage III” value [1] was 2, the “seizure behavior: number of mice at Stage IV” value [1] was 2 and the “seizure behavior: number of mice at Stage V” value [1] was 1*. For the same compound, the “5-HT content in the brain” value (brain of convulsive mice) was 14.6 ± 2.6 ng/L, the “NO content in the brain” value (brain of convulsive mice) was 26.4 ± 2.5 µmol/L and the “Na-K-ATP content in the brain” value (brain of convulsive mice) was 192.1 ± 5.7 ng/L.
